Results from patent publication US12366579B2, “Sulfur-heterocycle exchange chemistry and uses thereof” (University of Virginia Patent Foundation, priority 2019, dated 2025).

What was measured:
[1] = target: human prostaglandin reductase 2 (PTGR2) (Homo sapiens, UniProt Q8N8N7); experiment: Chemical proteomics analysis and gel-based screen of human PTGR2 with HHS SuTEx ligands; assay type: binding
Text: FIGS. 45A and 45B: Modification of human prostaglandin reductase 2 (PTGR2) with HHS SuTEx ligands. HHS0701 modifies the tyrosine at residue 100.
(§1) In addition, SuTEx fragment EKT231 (see FIG. 46A) modifies EDC3 at tyrosine 475.

[2] = target: T1, human fumarylacetoacetase (FAAA) (Homo sapiens, UniProt P16930); experiment: Chemical proteomics analysis and gel-based screen of human FAAA with HHS SuTEx ligands; assay type: binding
T1 construct: made in house; host or cells: HEK293T, soluble proteome
Method: FIGS. 44A-44C. Modification of human fumarylacetoacetase (FAAA) with HHS SuTEx ligands. FIG. 44A is a series of graphs showing the chemical proteomics analysis of human FAAA using an HHS SuTEx ligand, HHS0401 (25 μM) shown in FIG. 43. HHS0401 modifies the tyrosine at residue 244. FIG. 44B is an image of a gel-based chemical proteomic screen for human FAAA fragment ligands. Recombinant hFAAA-HEK293T soluble proteomes pretreated with indicated fragment (25 μM, 120 min) followed by labeling with HHS-475 (100 μM, 120 min).
as §1

purified DPP3 = target: T2, purified DPP3 (Homo sapiens, UniProt Q9NY33); experiment: DPP3 biochemical substrate assay (Arg-Arg β-naphthylamide peptidase assay); conditions: negative control with cyclopropyl-modified AG
T2 sequence (Q9NY33 1-737): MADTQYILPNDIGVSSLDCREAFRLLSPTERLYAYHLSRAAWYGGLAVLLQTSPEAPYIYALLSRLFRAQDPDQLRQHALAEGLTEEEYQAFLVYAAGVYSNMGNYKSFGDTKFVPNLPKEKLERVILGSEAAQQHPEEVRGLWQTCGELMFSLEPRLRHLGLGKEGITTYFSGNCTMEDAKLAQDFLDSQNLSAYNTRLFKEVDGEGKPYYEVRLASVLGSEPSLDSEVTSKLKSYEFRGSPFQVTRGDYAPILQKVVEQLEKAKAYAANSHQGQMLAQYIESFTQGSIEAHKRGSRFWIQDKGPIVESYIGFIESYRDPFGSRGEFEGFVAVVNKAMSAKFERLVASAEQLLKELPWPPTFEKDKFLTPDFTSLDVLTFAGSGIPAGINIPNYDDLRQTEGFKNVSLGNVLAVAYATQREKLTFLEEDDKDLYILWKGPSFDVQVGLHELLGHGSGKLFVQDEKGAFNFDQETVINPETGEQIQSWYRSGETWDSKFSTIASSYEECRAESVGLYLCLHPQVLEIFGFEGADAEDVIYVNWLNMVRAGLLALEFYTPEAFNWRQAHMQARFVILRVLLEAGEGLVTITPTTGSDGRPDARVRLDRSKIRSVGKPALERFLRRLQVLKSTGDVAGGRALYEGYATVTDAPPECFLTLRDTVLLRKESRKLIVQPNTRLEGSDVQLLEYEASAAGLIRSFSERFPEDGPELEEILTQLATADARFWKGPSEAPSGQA
Method: DPP3 Biochemical Substrate Assay
Substrate assays were performed using purified DPP3 protein diluted to 5 ng/μL in assay buffer. DPP3 samples (10 μl) were diluted to 85 μl with assay buffer and transferred to a black 96-well plate. Samples were treated with a 50× stock of SuTEx-fragment at indication concentration for 30 min at 37° C. A stock solution of DPP3 substrate (Arg-Arg β-naphthylamide trihydrochloride, 0.5 mM: Sigma-Aldrich. St, Louis, Missouri, United States of America) was diluted to 100 μM in assay buffer. Substrate solution (5 μl) was added to each sample. Samples were mixed briefly by shaking and reaction monitored in kinetic mode by measuring fluorescence at 450 nm for 10 min on a BMG Labtech CLARIOstar plate reader (BMG Labtech, Cary, North Carolina, United States of America).

DM93 soluble proteomes = experiment: Proteome-wide competitive chemical proteomics of SuTEx fragments vs HHS-482; assay type: binding, human; conditions: fragment 50 μM, 30 min, 37° C.
Method: Heavy and light proteomes (432 μl of each) were diluted to 2.3 mg ml^−1 in PBS and sample aliquots (432 μl) were treated with SuTEx fragment at the indicated concentrations (5 μl, 100× stock in DMSO), mixed gently and incubated for 30 min at 37° C. Samples were then treated with HHS-482 (5 μL, 5 mM stock in DMSO) for 30 min at 37° C. Probe-modified proteomes were conjugated to desthiobiotin-PEG3-azide followed by enrichment of probe-modified peptides for nano-electrospray ionization-LC-MS/MS analyses as previously described^57.
The chemical proteomic method for functional tyrosine profiling^72 was tailored to investigate AG/LG effects on SuTEx fragment reactivity in complex proteomes. In brief, isotopically light and heavy soluble proteomes from DM93 melanoma cells cultured by stable isotopic labeling by amino acids in cell culture (SILAC^80) media were used for quantitative liquid chromatography-mass spectrometry (LC-MS) studies. Light and heavy DM93 proteomes were treated with dimethyl sulfoxide (DMSO) vehicle or SuTEx fragment (50 μM, 30 min, 37° C.), respectively, followed by labeling with the tyrosine-reactive probe HHS-482 described hereinabove (50 μM, 30 min, 37° C.) and copper-catalyzed azide-alkyne cycloaddition (CuAAC) conjugation of a desthiobiotin-azide enrichment tag. Proteomes were digested with trypsin protease, HHS-482-modified peptides enriched by avidin chromatography and analyzed by high-resolution LC-MS/MS and bioinformatics as described hereinabove.
To evaluate substituent effects on proteome activity, reactivity profiles of each respective SuTEx fragment were compared across >1500 total distinct HHS-482-modified tyrosine sites from >650 detected proteins. Fragments were screened across independent biological replicates (n=2-3) and high-quality tyrosine site annotations were identified by detection in at least a single biological replicate from each fragment dataset, probe-specific enrichment (HHS-482 probe/DMSO SILAC ratio (SR)>5), and quality control confidence criteria of ≥300 Byonic score^31, […] protein false discovery rate (FDR), and ≤5 ppm mass accuracy in order to minimize the potential for false positives^72. SILAC ratios (SR) from competitive studies (Light-DMSO/Heavy-fragment) were used to identify fragment-competed tyrosine residues as sites showing >75% reduction in enrichment by HHS-482 compared with DMSO vehicle control (i.e. liganded tyrosines, SR>4). In total, 305 liganded tyrosines on 213 distinct proteins were identified, corresponding to ˜30% and ˜44% of total quantified tyrosines and proteins, respectively. […]

[3] = system: HEK293T soluble proteomes; experiment: LC-MS chemical proteomics of probe-modified sites in cell proteomes; assay type: binding, human; conditions: LC-MS chemical proteomics, FIG. 4A
Method: (§2) Proteomes were diluted to 2.3 mg/mL in PBS and sample aliquots (432 μL) were treated with sulfonyl-triazole or -fluoride probes at the indicated concentrations (5 μL, 100× stock in DMSO), mixed gently and incubated for 1 h at room temperature. Probe-modified proteomes were subjected to CuAAC conjugation to desthiobiotin-PEG3-azide (10 μL of 10 mM stock in DMSO; final concentration of 200 μM) using TCEP (10 μL of fresh 50 mM stock in water; 1 mM final concentration), TBTA ligand (33 μL of a 1.7 mM 4:1 t-butanol/DMSO stock, 100 μM final concentration), and CuSO4 (10 μL of 50 mM stock, 1 mM final concentration). Samples were mixed by vortexing and then incubated for 1 h at room temperature. Excess reagents were removed by chloroform-methanol extraction as previously described^51. Protein pellets were re-suspended in 500 μL of 6M urea/25 mM ammonium bicarbonate followed by DTT reduction and IAA alkylation as previously described^5. Excess reagents were removed by chloroform/methanol extraction as described above, and the protein pellet was re-suspended in 500 μL of 25 mM ammonium bicarbonate and then digested to peptides using trypsin/Lys-C (7.5 μg in 15 μL of ammonium bicarbonate, sequencing grade from Promega, Madison, Wisconsin, United States of America) was added to the mixture and incubated for 3 hrs at 37° C. Probe-modified peptides were enriched by avidin affinity chromatography, eluted, and prepared for LC-MS analysis as previously described^51.
A top 10 data-dependent acquisition MS method was used.
Sulfonyl-probe modifications of tyrosine, lysine, and other amino acids were included as a variable (common) modification of +635.27374 Da. […] A Byonic score of 300 was applied for a more inclusive initial evaluation of the search results and thereby consider more possible probe-modified sites. MS1 and MS2 spectra corresponding to the highest-scoring tyrosine- and lysine (internal or non-C terminal)-modified sequences (˜50-100 peptides) were manually verified. […] Distinct peptides containing probe-modified amino acid residues (termed sites) were determined by identifying all unique razor protein and site combinations across all of the proteomes tested.
To compare amino acid residues modified by sulfonyl probes, protein and peptide identifications were accomplished as described above with variable (common) modification of +635.27374 Da on the following amino acid residues: cysteine, aspartic acid, glutamic acid, histidine, lysine, methionine, asparagine, glutamine, arginine, serine, threonine, tryptophan, and tyrosine. For these amino acid comparisons, carbamidomethylation (+57.021464 Da) of cysteines was searched as a variable/common modification to allow for the potential of probe modification on cysteines. Comparisons of probe-modified sites across all probes and cell lines tested were performed using the R package ggplot2 (online at tidyverse.org). Venn diagrams for comparisons were generated using the VennDiagram R package^52.
Proteomes were digested with trypsin protease and desthiobiotin-modified peptides enriched by avidin affinity chromatography, released, and analyzed by high-resolution liquid chromatography-mass spectrometry (LC-MS). Probe-modified peptide-spectrum matches (PSMs) that met a quality control confidence criteria of ≥300 Byonic score^31 and ≤5 ppm mass accuracy were selected for further manual evaluation.

[4] = system: human cell proteomes (HEK293T, A549, DM93, H82, and Jurkat cells); experiment: LC-MS chemical proteomics of probe-modified tyrosine sites across 5 cell proteomes; assay type: binding; conditions: HHS-465 and -475 together; 100 μM, 1 hr, 25° C.
Method: as §2, with “Probe-modified peptides were enriched by avidin affinity chromatography, eluted, and prepared for LC-MS analysis as previously described^51.” left out

HEK293T, Jurkat cells = experiment: Live cell chemical proteomic profiling with SuTEx probes; assay type: cell-based, human; conditions: 100 μM, 2 hr, 37° C.; membrane and soluble fractions; both probes
Method: Cells grown to ˜90% confluency in 10 cm plates were treated with DMSO vehicle or sulfonyl-triazole probe (10 μL of 1000×DMSO stock) in serum-free media for the indicated concentrations and times at 37° C. with 5% CO2. After treatment, cells were washed with cold PBS twice before harvesting and preparation for gel-based chemical proteomic evaluation as described above. For LC-MS studies, protein concentrations were normalized to 2.3 mg/mL and 432 μL (for 1 mg final protein amount) were used for sample preparation as detailed below.
Proteomes were diluted to 2.3 mg/mL in PBS and sample aliquots (432 μL) were treated with sulfonyl-triazole or -fluoride probes at the indicated concentrations (5 μL, 100× stock in DMSO), mixed gently and incubated for 1 h at room temperature. Probe-modified proteomes were subjected to CuAAC conjugation to desthiobiotin-PEG3-azide (10 μL of 10 mM stock in DMSO; final concentration of 200 μM) using TCEP (10 μL of fresh 50 mM stock in water; 1 mM final concentration), TBTA ligand (33 μL of a 1.7 mM 4:1 t-butanol/DMSO stock, 100 μM final concentration), and CuSO4 (10 μL of 50 mM stock, 1 mM final concentration). Samples were mixed by vortexing and then incubated for 1 h at room temperature. Excess reagents were removed by chloroform-methanol extraction as previously described^51. […]

Chain of human prostaglandin reductase 2 (PTGR2) (Q8N8N7 whole entry): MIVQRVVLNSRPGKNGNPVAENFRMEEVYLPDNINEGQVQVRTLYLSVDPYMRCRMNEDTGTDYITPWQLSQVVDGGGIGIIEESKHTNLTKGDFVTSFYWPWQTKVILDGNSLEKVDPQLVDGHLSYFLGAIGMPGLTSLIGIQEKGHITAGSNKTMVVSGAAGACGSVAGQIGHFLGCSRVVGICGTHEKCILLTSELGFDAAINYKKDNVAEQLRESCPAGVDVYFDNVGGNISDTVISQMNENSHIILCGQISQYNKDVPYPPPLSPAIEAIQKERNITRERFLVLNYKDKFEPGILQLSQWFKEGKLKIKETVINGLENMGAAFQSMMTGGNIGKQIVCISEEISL
T1 sequence (P16930 whole entry): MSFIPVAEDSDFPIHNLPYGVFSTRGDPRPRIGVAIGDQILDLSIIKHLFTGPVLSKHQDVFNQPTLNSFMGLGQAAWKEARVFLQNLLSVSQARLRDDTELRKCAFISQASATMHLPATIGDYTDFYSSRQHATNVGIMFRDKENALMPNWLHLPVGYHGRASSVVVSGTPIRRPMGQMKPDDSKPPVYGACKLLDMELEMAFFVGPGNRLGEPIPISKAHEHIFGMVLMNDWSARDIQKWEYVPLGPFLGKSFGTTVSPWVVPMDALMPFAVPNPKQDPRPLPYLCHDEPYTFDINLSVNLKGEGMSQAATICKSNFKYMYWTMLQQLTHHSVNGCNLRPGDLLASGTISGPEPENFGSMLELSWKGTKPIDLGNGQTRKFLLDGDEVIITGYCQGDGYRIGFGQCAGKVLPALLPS

`O=C(c1ccc(S(=O)(=O)n2cnnc2)cc1)N1CCC(c2ccccc2)CC1` [HHS0701] was tested, and the “inhibition of PTGR2, gel-based chemical proteomic screen” value ([1]; FIG. 45B) was “dose-dependent inhibition” and the “tyrosine residue of PTGR2 modified” value ([1]; ligand 25 μM) was 100.

For `O=C(NCc1ccccc1)c1ccc(S(=O)(=O)n2cnnc2)cc1` [HHS0401], the “inhibition of FAAA, gel-based chemical proteomic analysis” value ([2]; FIG. 44C) was “dose-dependent inhibition” and the “tyrosine residue of FAAA modified” value ([2]; ligand 25 μM) was 244.

In the case of `COc1ccc(-c2ncn(S(=O)(=O)C3CC3)n2)cc1` [JWB131, 1-(Cyclopropylsulfonyl)-3-(4-methoxyphenyl)-1H-1,2,4-triazole], the “activity against DPP3 in substrate assay” value (purified DPP3) is reported as “inactive” and the “reactivity against the proteome” value (DM93 soluble proteomes) is reported as “largely unreactive”.

In the case of `C#CCNC(=O)c1ccc(S(=O)(=O)n2nccn2)cc1` [HHS-465, 4-((2H-1,2,3-Triazol-2-yl)sulfonyl)-N-(prop-2-yn-1-yl)benzamide], the “tyrosine specificity, Y/K ratio of modified sites” value [3] is reported as 2.5, the “tyrosine sites identified in aggregate across 5 cell proteomes” value [4] is reported as ~8,000 sites and the “distinct tyrosine sites measured in live cell studies, in total per cell line” value (HEK293T, Jurkat cells) is reported as ~3,500 sites.
